Laboratory results as given in patent US4792559A, “1,2,3,4-tetrahydroquinoline substituted 5-aminopentanenitrile compounds and their use as calcium modulators” (ADIR et Compagnie, priority 1985, dated 1988).
Entries after “also recorded” stand apart in the source; their conditions may differ. Where two headings read alike, the source gives them in different places.

How the values were obtained:
[1] = tested on: aorta artery of the rat without endothelium; assay: Contraction of rat aorta without endothelium by ionophore calcium A 23187; settings: A 23187 at 5.10^-6 M
right auricle (RA) = assay: Isolated right auricle, chronotropic effect; parameters: species or system rat (male Wistar); settings: Rattus norvegicus
Method: (§1) a. Study of isolated organs removed from rats
(§2) Male Wistar rats weighing from 350 to 400 g are used.
(§3) the right auricle (RA) and left auricle (LA) RA beats spontaneously.
(§4) Stabilisation is obtained in physiological liquid (2) after 30 minutes.
(§5) The substances to be tested are then added (test sample 0.2 ml) in cumulative doses every 15 minutes. The effects on RA are chronotropic. The effects on LA are inotropic. The construction of the activity-dose curves enables the IC50, expressed in M, to be measured.

dogs = assay: Haemodynamic study in anaesthetised dogs; format: in vivo, mongrel dogs; settings: for dP/dt: Left ventricular pressure derivative, variation: measured at 20 minutes; for negative inotropic effect / cardiotropic effect / percentage increase in the PR duration: i.v., compared with Verapamil
Method: A haemodynamic study was carried out on mongrel dogs weighing from 25 to 30 kg, which were anaesthetised with sodium pentobarbital in a dose of 30 mg/kg i.v., intubated and ventilated, and subjected to a thoracotomy at the 5th left intercostal space.
The left and aortal ventricular pressures are measured by means of MILLAR probes introduced by the femoral artery route. The cardiac frequency is measured by Biotach Gould ECG (derivation D2); the gases of the aortal blood and of the coronary sinus are analysed by an ABL3 radiometer.
The products tested were injected by the femoral vein route.

aorta [2] = assay: Isolated rat aorta rings stimulated with potassium-rich solution (K+ 100 mM), relaxation; parameters: species or system rat (male Wistar); settings: aorta rings stimulated with K+ 100 mM, read-out: AORTA St:K+ IC50
Method: as §1, §2
(§6) After rapid sacrifice of the animal, the following are removed:
(§7) the aorta, dissected and prepared in rings; after an equilibration period of 1 hour in the reference physiological solution (1), the prepared specimens are stimulated with a solution rich in potassium (K^+) (100 mM) or with noradrenaline (NA) (10^-6 M).
(§8) The substances to be tested are then added (test sample 0.2 ml) in cumulative doses every 15 minutes.
(§9) The relaxation values obtained permit an activity-dose curve to be constructed, enabling the IC50 to be calculated in M.
(§10) The characteristics of the solutions used are as follows: […]

aorta [3] = assay: Isolated rat aorta rings stimulated with noradrenaline (10^-6 M), relaxation; parameters: species or system rat (male Wistar); settings: read-out: AORTA St:NA IC50
Method: as §1, §2, §6, §7, §8, §9, §10

left auricle (LA) = assay: Isolated left auricle, inotropic effect; parameters: species or system rat (male Wistar); settings: Rattus norvegicus; stimulated electrically at 3 Hz
Method: as §1, §2, §3
LA is stimulated electrically at a rate of 3 Hz (180 beats per min.) (amplitude of the stimulations: threshold×2).
as §4, §5

calmodulin = calmodulin (Homo sapiens, UniProt P0DP23); assay: Calcium calmodulin binding, fluorescence of dansylated calmodulin; settings: for Kd/IC50 AORTA K+: close to 1 indicates vascular inhibition through calmodulin; for Kd: extrapolated to 0 calmodulin, read-out: Kd (cam); for mechanism indicated by the pharmacological effects: in vitro
Method: b. Fixation on calcium calmodulin binding
The orientations of synthesis which may lead to possibilities of inhibiting calmodulin are evaluated by measuring the fluorescence of dansylated calmodulin.
The substances to be tested are added to the experimental vessel (2 ml). The increase in fluorescence of dansylated calmodulin enables effect-dose curves to be constructed; measuring the EC50 gives an apparent Kd value. After extrapolation of the apparent Kd values to 0 calmodulin, the experiments carried out for different calcium-calmodulin concentration values enable the characteristic Kd values of the tested substances to be determined (Method proposed by Johnson and Wittenauer, 1983, Biochem., 211, 473-479).
d. Evaluation of the possibility of inhibition at the calmodulin level

left auricle / aorta = assay: Evaluation of myocardium/vessel selectivity (IC50 LA/IC50 aorta); parameters: species or system rat (male Wistar); settings: for LA/AORTA SELECTIVITY (St:K+): IC50 LA/IC50 aorta, high values indicate vascular selectivity
Excerpt: c. Evaluation of myocardium/vessel selectivity
The IC50 LA/IC50 aorta ratio leads to a first evaluation; the high values indicate vascular selectivity.

[4] = biological target: T1, Ca++ channels of membranes of transverse tubules in skeletal muscle (Homo sapiens, UniProt Q13698); assay: Binding on Ca++ channels of membranes of transverse tubules in skeletal muscle
T1 construct: membranes of transverse tubules in skeletal muscle; from tissue; host or cells: skeletal muscle, transverse tubule membranes
T1 sequence (Q13698 whole entry): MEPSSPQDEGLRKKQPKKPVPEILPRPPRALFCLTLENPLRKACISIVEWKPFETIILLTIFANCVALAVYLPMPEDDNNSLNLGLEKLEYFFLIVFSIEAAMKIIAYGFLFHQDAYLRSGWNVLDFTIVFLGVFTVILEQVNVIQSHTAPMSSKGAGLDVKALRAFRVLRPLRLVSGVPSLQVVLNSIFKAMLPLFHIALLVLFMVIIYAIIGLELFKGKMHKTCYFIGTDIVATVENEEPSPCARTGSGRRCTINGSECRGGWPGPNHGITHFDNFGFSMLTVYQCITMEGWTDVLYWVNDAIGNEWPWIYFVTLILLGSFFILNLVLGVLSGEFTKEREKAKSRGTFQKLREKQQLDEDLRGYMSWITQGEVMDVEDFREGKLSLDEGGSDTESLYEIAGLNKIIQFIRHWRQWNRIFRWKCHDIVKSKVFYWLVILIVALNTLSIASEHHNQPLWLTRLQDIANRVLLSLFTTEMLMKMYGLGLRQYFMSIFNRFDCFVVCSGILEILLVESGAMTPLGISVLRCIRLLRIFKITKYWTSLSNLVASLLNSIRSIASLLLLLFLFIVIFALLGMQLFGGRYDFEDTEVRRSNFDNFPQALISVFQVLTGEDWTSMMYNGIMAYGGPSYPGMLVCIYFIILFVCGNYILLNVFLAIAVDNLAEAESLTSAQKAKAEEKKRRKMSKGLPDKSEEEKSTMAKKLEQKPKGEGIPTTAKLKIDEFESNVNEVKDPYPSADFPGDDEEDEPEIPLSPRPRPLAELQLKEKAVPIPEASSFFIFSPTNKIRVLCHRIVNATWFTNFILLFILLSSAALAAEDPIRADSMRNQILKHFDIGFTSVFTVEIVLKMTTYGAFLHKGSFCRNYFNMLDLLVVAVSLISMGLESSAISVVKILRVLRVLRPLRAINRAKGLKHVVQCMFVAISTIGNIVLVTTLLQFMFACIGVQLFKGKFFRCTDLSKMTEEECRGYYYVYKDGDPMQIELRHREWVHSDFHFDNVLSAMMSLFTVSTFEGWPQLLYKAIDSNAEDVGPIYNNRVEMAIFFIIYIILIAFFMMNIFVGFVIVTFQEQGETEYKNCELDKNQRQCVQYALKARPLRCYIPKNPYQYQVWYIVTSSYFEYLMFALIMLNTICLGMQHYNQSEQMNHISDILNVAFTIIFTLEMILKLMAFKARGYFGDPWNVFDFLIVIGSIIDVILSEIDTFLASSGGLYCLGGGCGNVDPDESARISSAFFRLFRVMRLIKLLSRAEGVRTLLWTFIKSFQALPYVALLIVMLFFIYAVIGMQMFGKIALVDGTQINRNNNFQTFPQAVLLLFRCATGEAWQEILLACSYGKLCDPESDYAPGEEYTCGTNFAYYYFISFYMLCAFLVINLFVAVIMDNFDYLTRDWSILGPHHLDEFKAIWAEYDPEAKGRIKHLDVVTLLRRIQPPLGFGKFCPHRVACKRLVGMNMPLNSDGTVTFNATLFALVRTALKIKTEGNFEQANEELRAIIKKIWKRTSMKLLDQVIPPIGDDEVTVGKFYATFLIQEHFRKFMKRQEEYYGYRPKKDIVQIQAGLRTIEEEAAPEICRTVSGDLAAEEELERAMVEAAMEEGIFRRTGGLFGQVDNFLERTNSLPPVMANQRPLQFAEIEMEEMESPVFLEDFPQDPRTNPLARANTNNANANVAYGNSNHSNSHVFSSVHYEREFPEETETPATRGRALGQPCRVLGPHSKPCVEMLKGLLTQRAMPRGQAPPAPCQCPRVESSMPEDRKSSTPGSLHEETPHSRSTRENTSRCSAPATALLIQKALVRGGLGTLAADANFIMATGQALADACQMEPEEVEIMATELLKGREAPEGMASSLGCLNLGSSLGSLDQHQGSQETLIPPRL
T1 sequence (P54289 25-944 partner limits assumed): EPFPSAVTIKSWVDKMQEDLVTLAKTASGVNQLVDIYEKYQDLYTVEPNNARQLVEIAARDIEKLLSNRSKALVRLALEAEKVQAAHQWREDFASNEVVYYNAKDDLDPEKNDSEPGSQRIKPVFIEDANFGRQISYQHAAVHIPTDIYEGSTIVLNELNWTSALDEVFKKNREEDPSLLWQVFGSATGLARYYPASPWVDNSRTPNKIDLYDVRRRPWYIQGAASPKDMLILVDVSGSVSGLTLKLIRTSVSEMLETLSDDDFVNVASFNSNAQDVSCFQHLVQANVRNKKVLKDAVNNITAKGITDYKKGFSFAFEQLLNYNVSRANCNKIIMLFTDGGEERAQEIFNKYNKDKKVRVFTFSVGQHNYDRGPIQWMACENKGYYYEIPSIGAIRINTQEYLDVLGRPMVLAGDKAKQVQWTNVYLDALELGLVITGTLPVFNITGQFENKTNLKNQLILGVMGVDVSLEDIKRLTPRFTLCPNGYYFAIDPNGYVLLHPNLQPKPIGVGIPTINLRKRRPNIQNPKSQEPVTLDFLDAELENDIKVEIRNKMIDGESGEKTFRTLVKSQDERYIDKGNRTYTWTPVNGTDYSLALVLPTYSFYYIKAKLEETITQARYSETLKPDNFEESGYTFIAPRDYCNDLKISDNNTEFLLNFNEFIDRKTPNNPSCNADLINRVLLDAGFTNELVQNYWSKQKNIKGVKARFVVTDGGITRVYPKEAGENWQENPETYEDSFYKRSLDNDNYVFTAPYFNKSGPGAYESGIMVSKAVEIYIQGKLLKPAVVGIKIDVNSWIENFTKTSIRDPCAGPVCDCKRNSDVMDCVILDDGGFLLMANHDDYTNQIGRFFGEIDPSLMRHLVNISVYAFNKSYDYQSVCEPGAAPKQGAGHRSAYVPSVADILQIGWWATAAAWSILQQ
T1 sequence (P54289 945-1103 partner limits assumed): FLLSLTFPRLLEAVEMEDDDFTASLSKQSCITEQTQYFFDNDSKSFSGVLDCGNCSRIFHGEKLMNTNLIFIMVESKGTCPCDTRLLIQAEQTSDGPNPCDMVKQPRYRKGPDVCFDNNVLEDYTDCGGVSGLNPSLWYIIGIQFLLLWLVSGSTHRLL
T1 sequence (Q02641 whole entry partner): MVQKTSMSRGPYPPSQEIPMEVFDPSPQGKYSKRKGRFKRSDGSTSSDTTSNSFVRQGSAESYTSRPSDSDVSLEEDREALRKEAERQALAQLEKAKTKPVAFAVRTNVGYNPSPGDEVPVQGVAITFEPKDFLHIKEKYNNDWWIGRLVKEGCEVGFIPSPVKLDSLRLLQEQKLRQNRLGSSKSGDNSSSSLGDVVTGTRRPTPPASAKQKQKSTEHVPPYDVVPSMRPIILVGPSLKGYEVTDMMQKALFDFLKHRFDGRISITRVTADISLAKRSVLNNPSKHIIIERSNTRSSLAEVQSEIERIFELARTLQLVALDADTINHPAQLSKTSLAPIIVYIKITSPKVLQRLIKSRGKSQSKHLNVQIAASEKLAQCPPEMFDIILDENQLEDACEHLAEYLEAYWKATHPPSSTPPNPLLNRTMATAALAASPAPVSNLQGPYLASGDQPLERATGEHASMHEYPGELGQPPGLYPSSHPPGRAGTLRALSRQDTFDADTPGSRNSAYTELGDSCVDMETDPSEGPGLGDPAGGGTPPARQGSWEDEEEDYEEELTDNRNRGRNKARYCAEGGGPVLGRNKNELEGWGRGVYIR
T1 sequence (Q06432 whole entry partner): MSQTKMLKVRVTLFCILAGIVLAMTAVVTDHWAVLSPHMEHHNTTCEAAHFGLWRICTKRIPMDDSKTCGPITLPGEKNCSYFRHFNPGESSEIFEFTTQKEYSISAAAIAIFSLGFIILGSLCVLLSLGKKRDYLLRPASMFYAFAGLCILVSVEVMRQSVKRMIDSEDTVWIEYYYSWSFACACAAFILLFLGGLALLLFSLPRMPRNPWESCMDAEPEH
Excerpt: (§11) C. Binding on Ca^++ channels of membranes of transverse tubules in skeletal muscle.

[5] = biological target: T2, Ca++ channels of membranes of transverse tubules in skeletal muscle; assay: as above; settings: transverse tubules in skeletal muscle; read-out: Kd for the Ca++ channel
T2 construct: membranes of transverse tubules in skeletal muscle; from tissue; host or cells: skeletal muscle, transverse tubule membranes
T2 sequence (Q13698 whole entry): as the sequence (Q13698 whole entry) above
T2 sequence (P54289 25-944 partner limits assumed): as the sequence (P54289 25-944 partner limits assumed) above
T2 sequence (P54289 945-1103 partner limits assumed): as the sequence (P54289 945-1103 partner limits assumed) above
T2 sequence (Q02641 whole entry partner): as the sequence (Q02641 whole entry partner) above
T2 sequence (Q06432 whole entry partner): as the sequence (Q06432 whole entry partner) above
Excerpt: as §11

[6] = spontaneously beating, read-out: RIGHT AURICLE (RA) (CHRONOTROPIC EFFECT) IC50

SMILES	AAP: Average arterial pressure, maximum variation (dogs; IV 100 μg/kg) [%]	ACF: Average coronary flow, maximum variation (dogs; IV 100 μg/kg)	CF: Cardiac frequency, maximum variation (dogs; IV 100 μg/kg) [%]	PO2 SC: PO2 coronary blood sinus, maximum variation (dogs; IV 100 μg/kg)	PR: PR space of the ECG, maximum variation (dogs; IV 100 μg/kg)	dP/dt: Left ventricular pressure derivative, variation (dogs; IV 100 μg/kg) [%]	AAP: Average arterial pressure, maximum variation (dogs; IV 300 μg/kg) [%]	ACF: Average coronary flow, maximum variation (dogs; IV 300 μg/kg)	CF: Cardiac frequency, maximum variation (dogs; IV 300 μg/kg) [%]	PO2 SC: PO2 coronary blood sinus, maximum variation (dogs; IV 300 μg/kg)	PR: PR space of the ECG, maximum variation (dogs; IV 300 μg/kg)	dP/dt: Left ventricular pressure derivative, variation (dogs; IV 300 μg/kg) [%]	IC50 (aorta [2]; Rattus norvegicus) [nM]	IC50 (aorta [3]) [µM]	IC50 (left auricle (LA)) [µM]	IC50 (right auricle (RA); [6]) [nM]	Kd/IC50 AORTA K+ (calmodulin)	Kd (calmodulin) [µM]	I/C: Myocardial O2 intake/consumption ratio, maximum variation (dogs; IV 300 μg/kg)	LA/AORTA SELECTIVITY (St:K+) (left auricle / aorta)	other results
COc1ccc(CCN(C)CCCC(C#N)(c2ccc(OC)c(OC)c2)C(C)C)cc1OC (centres unmarked) [Verapamil, verapamil, reference compound]	-16	+87%	-9	+42%	+14%	-5	-21	+99%	-8	+71%	+40%	-13	800	14	2	–	–	–	–	–	activity on contraction by ionophore calcium A 23187 [1]: inactive; IC50 (right auricle (RA); read-out: RIGHT AURICLE (RA) (CH[…]) IC50): 2000 nM; AAP: Average arterial pressure, maximum variation (dogs; IV 30 μg/kg): -5%; ACF: Average coronary flow, maximum variation (dogs; IV 30 μg/kg): +32%; CF: Cardiac frequency, maximum variation (dogs; IV 30 μg/kg): -4%; PO2 SC: PO2 coronary blood sinus, maximum variation (dogs; IV 30 μg/kg): +18%; PR: PR space of the ECG, maximum variation (dogs; IV 30 μg/kg): +6%
COc1ccc(C(C#N)(CCCN(C)CCc2ccc(OC)c3c2CCCN3C(C)=O)C(C)C)cc1OC (centres unmarked) [Example 4, 2-(3,4-dimethoxyphenyl)-2-isopropyl-5-{N-[(1-acetyl-8-methoxy-1,2,3,4-tetrahydroquinol-5-yl)ethyl]-N-methyl-amino}-pentanenitrile]	–	–	–	–	–	–	-14	+84%	-17	+47%	+27%	-2	600	13	8	1500	10.8	6.5	+83%	13	–
COc1cccc(C(C#N)(CCCN(C)CCc2ccc(OC)c3c2CCCN3C(C)=O)C(C)C)c1 (centres unmarked) [Example 13, 2-(3-methoxyphenyl)-2-isopropyl-5-{N-[(1-acetyl-8-methoxy-1,2,3,4-tetrahydroquinol-5-yl)ethyl]-N-methyl-amino}-pentanenitrile]	-10	+42%	-11	+40%	+10%	0	-23	–	-15	+59%	+32%	-6	250	30	5.2	1000	97	34	+99%	20	I/C: Myocardial O2 intake/consumption ratio, maximum variation (dogs; IV 100 μg/kg): +45%
COc1cccc(C(C#N)(CCCN(C)CCc2ccc(OC)c3c2CCCN3C(C)=O)Sc2ccccc2)c1 (centres unmarked) [Example 1, 2-(3-methoxyphenyl)-2-phenylthio-5-{N-[(1-acetyl-8-methoxy-1,2,3,4-tetrahydroquinol-5-yl)ethyl]-N-methylamino}-pentanenitrile]	-9	+109%	-10	+36%	+7%	0	-24	+117%	-14	+63%	+19%	-3	750	5.5	82	10000	1.08	0.81	+118%	100	IC50 ([1]; Rattus norvegicus): ~1000 nM; affinity for calmodulin (calmodulin): an affinity for calmodulin coherent with the biological effect; mechanism indicated by the pharmacological effects (calmodulin): intracellular inhibitory mechanisms and, especially, a calcium-calmodulin inhibition mechanism; AAP: Average arterial pressure, maximum variation (dogs; IV 30 μg/kg): 0%; ACF: Average coronary flow, maximum variation (dogs; IV 30 μg/kg): +54%; CF: Cardiac frequency, maximum variation (dogs; IV 30 μg/kg): -5%; I/C: Myocardial O2 intake/consumption ratio, maximum variation (dogs; IV 30 μg/kg): +19%; PO2 SC: PO2 coronary blood sinus, maximum variation (dogs; IV 30 μg/kg): +14%; PR: PR space of the ECG, maximum variation (dogs; IV 30 μg/kg): 0%; I/C: Myocardial O2 intake/consumption ratio, maximum variation (dogs; IV 100 μg/kg): +55%; negative inotropic effect / cardiotropic effect (dogs): absence of a negative inotropic effect; percentage increase in the PR duration (dogs): reduction in the percentage increase in the PR duration; IC50 (aorta [2]): 600 nM; affinity for calcium channels relative to verapamil [4]: ~20 times the one of verapamil; Kd [5]: 1 nM; vascular selectivity (left auricle / aorta; compared with verapamil): this selectivity is greatest; also recorded: a greater selectivity in favour of vessels
COc1ccc(C(C#N)(CCCN(C)CCc2ccc(OC)c3c2CCCN3C(C)=O)Sc2ccccc2)cc1OC (centres unmarked) [Example 7, 2-(3,4-dimethoxyphenyl)-2-phenylthio-5-{N-[(1-acetyl-8-methoxy-1,2,3,4-tetrahydroquinol-5-yl)ethyl]-N-methyl-amino}-pentanenitrile]	–	–	–	–	–	–	-16	+77%	-7	+36%	+15%	0	360	3	5.5	2900	0.66	0.24	+52%	15	mechanism indicated by the pharmacological effects (calmodulin): intracellular inhibitory mechanisms and, especially, a calcium-calmodulin inhibition mechanism; AAP: Average arterial pressure, maximum variation (dogs; IV 1000 μg/kg): -36%; ACF: Average coronary flow, maximum variation (dogs; IV 1000 μg/kg): +132%; CF: Cardiac frequency, maximum variation (dogs; IV 1000 μg/kg): -11%; I/C: Myocardial O2 intake/consumption ratio, maximum variation (dogs; IV 1000 μg/kg): +107%; PO2 SC: PO2 coronary blood sinus, maximum variation (dogs; IV 1000 μg/kg): +49%; PR: PR space of the ECG, maximum variation (dogs; IV 1000 μg/kg): +37%; dP/dt: Left ventricular pressure derivative, variation (dogs; IV 1000 μg/kg): -3%; negative inotropic effect / cardiotropic effect (dogs): absence of a negative inotropic effect; percentage increase in the PR duration (dogs): reduction in the percentage increase in the PR duration
